Laboratory results reported in ChEMBL document CHEMBL3817848, “Synthesis and in vitro α-chymotrypsin inhibitory activity of 6-chlorobenzimidazole derivatives” (Bioorg Med Chem, 2016).

Assays:
[1] = Inhibition of alpha-chymotrypsin (unknown origin) using N-succinyl-L-phenylalanine-p-nitroanilide as substrate preincubated for 25 mins by microplate reader method; design: species or system Homo sapiens
Homo sapiens = species: Homo sapiens; experiment: Inhibition of alpha-chymotrypsin (unknown origin) using N-succinyl-L-phenylalanine-p-nitroanilide as substrate at 500 uM preincubated for 25 mins by microplate reader method
[2] = Competitive inhibition of alpha-chymotrypsin (unknown origin) using N-succinyl-L-phenylalanine-p-nitroanilide as substrate; design: species or system Homo sapiens
[3] = Mixed inhibition of alpha-chymotrypsin (unknown origin) using n-succinyl-l-phenylalanine-p-nitroanilide as substrate; design: species or system Homo sapiens

Compound	IC50 [1]	inhibition (Homo sapiens)	Ki [2]	Ki [3]
Clc1ccc2nc(-c3cccc(Br)c3)[nH]c2c1	458 µM	< 50%	–	–
Clc1ccc2nc(-c3cccc4ccccc34)[nH]c2c1	20.9 µM	> 50%	25.3 µM	–
N#Cc1ccc(-c2nc3cc(Cl)ccc3[nH]2)cc1	> 500 µM	< 50%	–	–
O=[N+]([O-])c1ccc(Cl)c(-c2nc3ccc(Cl)cc3[nH]2)c1	> 500 µM	< 50%	–	–
Oc1ccc(-c2nc3ccc(Cl)cc3[nH]2)c(O)c1	34.6 µM	> 50%	33.3 µM	–
Clc1ccc2nc(-c3cccnc3)[nH]c2c1	48.9 µM	> 50%	50.1 µM	–
Clc1ccc2nc(-c3c(Cl)cccc3Cl)[nH]c2c1	96.4 µM	> 50%	99.8 µM	–
Clc1ccc(-c2nc3ccc(Cl)cc3[nH]2)c(Cl)c1	35.6 µM	> 50%	39.6 µM	–
Fc1ccccc1-c1nc2ccc(Cl)cc2[nH]1	118 µM	> 50%	79.3 µM	–
COc1cccc(-c2nc3ccc(Cl)cc3[nH]2)c1	38.1 µM	> 50%	–	36.5 µM
CCOc1cc(-c2nc3ccc(Cl)cc3[nH]2)ccc1O	15.9 µM	> 50%	17.3 µM	–
CC(C)c1ccc(-c2nc3ccc(Cl)cc3[nH]2)cc1	428 µM	< 50%	–	–
O=[N+]([O-])c1ccc(-c2nc3cc(Cl)ccc3[nH]2)cc1	471 µM	< 50%	–	–
Clc1ccc2[nH]c(-c3ccccc3)nc2c1	> 500 µM	< 50%	–	–
COc1ccc(-c2nc3ccc(Cl)cc3[nH]2)cc1OC	14.8 µM	> 50%	16.4 µM	–
Cc1ccc(-c2nc3cc(Cl)ccc3[nH]2)cc1	> 500 µM	< 50%	–	–
Clc1ccc2[nH]c(/C=C/c3ccccc3)nc2c1	486 µM	< 50%	–	–
CN(C)c1ccc(-c2nc3ccc(Cl)cc3[nH]2)cc1	24.2 µM	> 50%	17.5 µM	–
Oc1ccccc1-c1nc2cc(Cl)ccc2[nH]1	> 500 µM	< 50%	–	–
Cn1c(-c2ccco2)nc2ccc(Cl)cc21	93.1 µM	> 50%	71.4 µM	–
